Test [1] relates to PC3-CXCR4.5 cells. Nature of the test: MIP3α secretion by PC3-CXCR4.5 cells (ELISA). Conditions: ELISA. The class given is cell-based. The procedure: In this example, regulation of the chemokine MIP3α (macrophage inflammatory protein 3α) was examined. […] In FIG. 1B, PC3 (left panel) and PC3-CXCR4.5 (right panel) cells were stimulated with the indicated concentrations of CXCL12 for 48 hours and MIP3α secretion was assessed by ELISA. The results represent the average of triplicates±STDEV.
The effects of the CXCR4 antagonist AMD3100 and of 4F-benzoyl-TN14003 (4FB-TN14003), hitherto known as a CXCR4 antagonist, on MIP3α secretion were further tested. […] In FIG. 1C, CXCR4 signaling in PC3 (left panel) and PC3-CXCR4.5 (right panel) cells was inhibited with anti-CXCL12 antibodies (αCXCL12) and Pertussis toxin (PTX) treatments alone or in combination with CXCL12, as indicated. Secretion of MIP3α was assessed by ELISA. The results represent the average of triplicates±STDEV.
(In an ELISA, binding on a coated surface is turned into a signal by an enzyme label.)

In the next test the test system is human CD4+ T cells. Nature of the test: Proliferation and survival of CD4+ T cells. Conditions: AMD-3100 20 μM; 4F-benzoyl-TN14003 4-20 μM. The class given is cell-based. The procedure: The effect of CXCR4 antagonists on the survival of freshly isolated normal CD4^+ T cells, CD34^+ stem cells and keratinocytes was examined. The proliferation and survival of keratinocytes was not inhibited by CXCR4 antagonists AMD-3100 (20 μM) and 4F-benzoyl-TN14003 (4-20 μM) or the natural ligand CXCL12 (FIG. 2C). The proliferation and survival of CD4^+ T cells was not inhibited by CXCR4 antagonists AMD-3100 (20 μM).

The subject of a further test is PC3 cells. Nature of the test: Proliferation of PC3 prostate tumor cells. The class given is cell-based. As for the experimental part: (§1) Next, the effect of the CXCR4 modulators on PC3 and PC3-CXCR4.5 prostate tumor cells was tested. […] The proliferation induced by 4F-benzoyl-TN14003 was dose-dependent (FIG. 3B).
Test [2] relates to PC3-CXCR4.5 cells. Nature of the test: Proliferation of PC3-CXCR4.5 prostate tumor cells. The test is classed as cell-based. As for the experimental part: as §1
The test system of the next test is 22Rv1. Nature of the test: Proliferation of 22Rv1 prostate carcinoma cells. The class given is cell-based.
The next test concerns U-87. Nature of the test: Proliferation of U-87 glioblastoma cells. The test is classed as cell-based.
The test system of test [3] is BM derived CD138+ MM cells. Nature of the test: Survival and apoptosis of BM derived cells of MM patients. The test is classed as cell-based, human.

Molecules are shown by their SMILES. Bridge positions count the residues as written; N and C are the ends. Square brackets hold non-standard residues; d marks the D form. Peptide text beside a SMILES is read from it. * marks the point of attachment. 2Nal = N[C@@H](Cc1ccc2ccccc2c1)C(=O)O; Benzoyl(4-F) = O=C(c1ccc(F)cc1)*; Cit = NC(=O)NCCC[C@H](N)C(=O)O

`N=C(N)NCCC[C@H](NC(=O)[C@@H]1CSSC[C@H](NC(=O)[C@H](Cc2ccc3ccccc3c2)NC(=O)[C@H](CCCNC(=N)N)NC(=O)[C@H](CCCNC(=N)N)NC(=O)c2ccc(F)cc2)C(=O)N[C@@H](Cc2ccc(O)cc2)C(=O)N[C@@H](CCCNC(N)=O)C(=O)N[C@@H](CCCCN)C(=O)N[C@H](CCCCN)C(=O)N2CCC[C@H]2C(=O)N[C@@H](Cc2ccc(O)cc2)C(=O)N[C@@H](CCCNC(=N)N)C(=O)N[C@@H](CCCNC(N)=O)C(=O)N1)C(N)=O` [4F-benzoyl-TN14003, 4F-benzoyl-Arg-Arg-Nal-Cys-Tyr-Cit-Lys-DLys-Pro-Tyr-Arg-Cit-Cys-Arg-NH2] ({Benzoyl(4-F)}-RR[2Nal]CY[Cit]K[dK]PYR[Cit]CR-NH2; disulfide 4-13): in the test with PC3-CXCR4.5 cells [1], the MIP3α secretion result is recorded as “induced in both cell lines MIP3α secretion in an agonist manner”. Further, in the test on human CD4+ T cells, the “proliferation and survival of CD4+ T cells” value is listed as “induced T cell proliferation”. Also, the proliferation result in the test on PC3 cells is listed as “induced the proliferation of prostate cancer cells”; in the test with PC3-CXCR4.5 cells [2], “induced the proliferation of prostate cancer cells”; in the test on 22Rv1 it was “either stimulated or not affected”; with U-87 it was “either stimulated or not affected”. In addition, the “apoptosis of CD138+ MM cells” value in test [3] (8 μM, 24 hr) is on record as “induced apoptosis”. For the same compound, in test [3] (freshly isolated BM cells), the “sensitivity of normal BM samples or BM samples with low percentage of MM cells” value is “not sensitive to treatment”. In test [3] (freshly isolated BM cells of MM patients), the “sensitivity of BM derived samples with high percentage of MM” value is on record as “sensitive to treatment”.

The values above are taken from US8765683B2, “T-140 peptide analogs having CXCR4 super-agonist activity for cancer therapy” (Biokine Therapeutics Ltd., priority 2006, dated 2014).
